{"source": "ChEMBL document CHEMBL3244025", "about": "“Carbocyclic arabinosyladenine, an adenosine deaminase resistant antiviral agent” (J Med Chem, 1977)", "key": {"P388": {"tested_on": "P388", "experiment": "Cytotoxicity against mouse P388 cells after 72 hrs by hemocytometric analysis", "format": "functional"}, "[1]": {"experiment": "Stability of the compound assessed as calf intestinal adenosine deaminase type 3-mediated deamination", "format": "ADME, Bos taurus", "settings": "cattle"}, "Human alphaherpesvirus 1": {"tested_on": "Human alphaherpesvirus 1", "experiment": "Antiviral activity against Herpes simplex virus type 1 HF infected in human Hep2 cells assessed as inhibition of virus-induced cytopathogenic effect", "format": "functional, HEp-2"}, "[2]": {"experiment": "Cytotoxicity against human Hep2 cells", "format": "cell-based", "settings": "hep-2"}, "[3]": {"experiment": "Stability of the compound assessed as calf intestinal adenosine deaminase type 3-mediated deamination in presence of C-ara-A", "format": "ADME, Bos taurus", "settings": "cattle"}}}
{"smiles": "Nc1ncnc2c1ncn2[C@@H]1C[C@H](CO)[C@@H](O)[C@@H]1O", "note": "(racemic)", "values": [{"measurement": "LD50", "setting": "P388", "value": 1, "unit": "×10⁻⁵ M"}, {"measurement": "Stability", "setting": "[1]", "value": "Stable"}, {"measurement": "MED50", "setting": "Human alphaherpesvirus 1", "value": 2.8, "unit": "µg/mL"}, {"measurement": "Activity", "setting": "[2]", "value": 9, "unit": "µg/mL"}]}
{"smiles": "Nc1ncnc2c1ncn2[C@@H]1O[C@H](CO)[C@@H](O)[C@H]1O", "note": "[ADENOSINE]", "values": [{"measurement": "Stability", "setting": "[3]", "value": "Unstable"}]}
{"smiles": "Nc1ncnc2c1ncn2[C@@H]1O[C@H](CO)[C@@H](O)[C@@H]1O", "note": "[VIDARABINE]", "values": [{"measurement": "LD50", "setting": "P388", "value": 1, "unit": "×10⁻⁵ M"}, {"measurement": "Stability", "setting": "[1]", "value": "Unstable"}, {"measurement": "Stability", "setting": "[3]", "value": "Unstable"}]}
